# Assay results as given in US20230079819A1, “COMPOUNDS AND USES THEREOF” (Foghorn Therapeutics Inc., priority 2019, published 2023).
# Tests used:
# BRG-1 = target: T1, BRG-1 (Homo sapiens, UniProt P51532); test: ATPase catalytic activity of BRG-1, ADP-Glo in vitro biochemical assay; details: ATPase catalytic activity, 30 nM BRG-1, 400 μM ATP, read-out: BRG1 IP50 (μM)*
# T1 construct: made in house; host or cells: High Five insect cells
# BRM = target: T2, BRM (Homo sapiens, UniProt P51531); test: ATPase catalytic activity of BRM, ADP-Glo in vitro biochemical assay; details: ATPase catalytic activity, 30 nM BRM, 400 μM ATP, read-out: BRM IP50 (μM)*
# T2 construct: made in house; host or cells: High Five insect cells
# T2 sequence (P51531 whole entry): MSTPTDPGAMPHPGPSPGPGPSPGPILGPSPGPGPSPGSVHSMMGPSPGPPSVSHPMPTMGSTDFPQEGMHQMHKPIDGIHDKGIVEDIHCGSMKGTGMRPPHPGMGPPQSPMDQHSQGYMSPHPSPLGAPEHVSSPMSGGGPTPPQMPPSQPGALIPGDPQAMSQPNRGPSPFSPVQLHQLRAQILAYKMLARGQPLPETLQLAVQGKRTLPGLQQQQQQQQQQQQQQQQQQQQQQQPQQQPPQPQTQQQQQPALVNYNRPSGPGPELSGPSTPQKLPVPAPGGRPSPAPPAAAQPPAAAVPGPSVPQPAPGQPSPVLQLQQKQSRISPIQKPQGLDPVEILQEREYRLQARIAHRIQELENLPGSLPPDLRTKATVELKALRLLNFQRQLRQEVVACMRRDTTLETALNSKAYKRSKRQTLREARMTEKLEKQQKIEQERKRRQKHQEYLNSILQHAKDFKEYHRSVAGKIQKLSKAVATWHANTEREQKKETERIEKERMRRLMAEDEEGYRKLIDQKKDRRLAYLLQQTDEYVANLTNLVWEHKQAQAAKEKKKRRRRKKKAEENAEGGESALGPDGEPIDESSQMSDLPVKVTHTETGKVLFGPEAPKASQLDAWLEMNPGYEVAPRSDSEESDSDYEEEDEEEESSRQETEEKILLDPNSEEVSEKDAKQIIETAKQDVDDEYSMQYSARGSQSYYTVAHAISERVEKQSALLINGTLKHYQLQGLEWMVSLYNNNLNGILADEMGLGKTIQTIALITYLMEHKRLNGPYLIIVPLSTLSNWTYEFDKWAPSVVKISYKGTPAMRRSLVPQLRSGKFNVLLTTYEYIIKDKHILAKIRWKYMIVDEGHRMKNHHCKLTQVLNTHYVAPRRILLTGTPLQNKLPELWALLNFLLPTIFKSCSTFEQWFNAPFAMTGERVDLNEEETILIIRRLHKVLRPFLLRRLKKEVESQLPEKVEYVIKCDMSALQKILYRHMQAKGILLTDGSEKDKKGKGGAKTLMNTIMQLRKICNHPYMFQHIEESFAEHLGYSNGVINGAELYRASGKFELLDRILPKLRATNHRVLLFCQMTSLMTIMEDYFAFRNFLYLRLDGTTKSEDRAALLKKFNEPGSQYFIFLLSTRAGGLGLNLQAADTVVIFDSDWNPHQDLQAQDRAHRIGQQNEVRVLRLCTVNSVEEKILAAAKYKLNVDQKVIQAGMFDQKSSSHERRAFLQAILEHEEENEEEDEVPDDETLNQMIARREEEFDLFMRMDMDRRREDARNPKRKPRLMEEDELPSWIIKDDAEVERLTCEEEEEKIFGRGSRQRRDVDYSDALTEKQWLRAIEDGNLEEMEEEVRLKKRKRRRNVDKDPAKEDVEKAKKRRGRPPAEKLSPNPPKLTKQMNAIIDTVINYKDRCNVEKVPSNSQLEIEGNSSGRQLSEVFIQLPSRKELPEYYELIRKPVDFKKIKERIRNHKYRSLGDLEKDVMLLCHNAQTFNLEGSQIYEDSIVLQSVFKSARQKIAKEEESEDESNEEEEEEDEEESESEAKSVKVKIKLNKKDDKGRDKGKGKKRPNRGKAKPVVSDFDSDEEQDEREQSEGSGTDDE
# T1 sequence (P51532 whole entry): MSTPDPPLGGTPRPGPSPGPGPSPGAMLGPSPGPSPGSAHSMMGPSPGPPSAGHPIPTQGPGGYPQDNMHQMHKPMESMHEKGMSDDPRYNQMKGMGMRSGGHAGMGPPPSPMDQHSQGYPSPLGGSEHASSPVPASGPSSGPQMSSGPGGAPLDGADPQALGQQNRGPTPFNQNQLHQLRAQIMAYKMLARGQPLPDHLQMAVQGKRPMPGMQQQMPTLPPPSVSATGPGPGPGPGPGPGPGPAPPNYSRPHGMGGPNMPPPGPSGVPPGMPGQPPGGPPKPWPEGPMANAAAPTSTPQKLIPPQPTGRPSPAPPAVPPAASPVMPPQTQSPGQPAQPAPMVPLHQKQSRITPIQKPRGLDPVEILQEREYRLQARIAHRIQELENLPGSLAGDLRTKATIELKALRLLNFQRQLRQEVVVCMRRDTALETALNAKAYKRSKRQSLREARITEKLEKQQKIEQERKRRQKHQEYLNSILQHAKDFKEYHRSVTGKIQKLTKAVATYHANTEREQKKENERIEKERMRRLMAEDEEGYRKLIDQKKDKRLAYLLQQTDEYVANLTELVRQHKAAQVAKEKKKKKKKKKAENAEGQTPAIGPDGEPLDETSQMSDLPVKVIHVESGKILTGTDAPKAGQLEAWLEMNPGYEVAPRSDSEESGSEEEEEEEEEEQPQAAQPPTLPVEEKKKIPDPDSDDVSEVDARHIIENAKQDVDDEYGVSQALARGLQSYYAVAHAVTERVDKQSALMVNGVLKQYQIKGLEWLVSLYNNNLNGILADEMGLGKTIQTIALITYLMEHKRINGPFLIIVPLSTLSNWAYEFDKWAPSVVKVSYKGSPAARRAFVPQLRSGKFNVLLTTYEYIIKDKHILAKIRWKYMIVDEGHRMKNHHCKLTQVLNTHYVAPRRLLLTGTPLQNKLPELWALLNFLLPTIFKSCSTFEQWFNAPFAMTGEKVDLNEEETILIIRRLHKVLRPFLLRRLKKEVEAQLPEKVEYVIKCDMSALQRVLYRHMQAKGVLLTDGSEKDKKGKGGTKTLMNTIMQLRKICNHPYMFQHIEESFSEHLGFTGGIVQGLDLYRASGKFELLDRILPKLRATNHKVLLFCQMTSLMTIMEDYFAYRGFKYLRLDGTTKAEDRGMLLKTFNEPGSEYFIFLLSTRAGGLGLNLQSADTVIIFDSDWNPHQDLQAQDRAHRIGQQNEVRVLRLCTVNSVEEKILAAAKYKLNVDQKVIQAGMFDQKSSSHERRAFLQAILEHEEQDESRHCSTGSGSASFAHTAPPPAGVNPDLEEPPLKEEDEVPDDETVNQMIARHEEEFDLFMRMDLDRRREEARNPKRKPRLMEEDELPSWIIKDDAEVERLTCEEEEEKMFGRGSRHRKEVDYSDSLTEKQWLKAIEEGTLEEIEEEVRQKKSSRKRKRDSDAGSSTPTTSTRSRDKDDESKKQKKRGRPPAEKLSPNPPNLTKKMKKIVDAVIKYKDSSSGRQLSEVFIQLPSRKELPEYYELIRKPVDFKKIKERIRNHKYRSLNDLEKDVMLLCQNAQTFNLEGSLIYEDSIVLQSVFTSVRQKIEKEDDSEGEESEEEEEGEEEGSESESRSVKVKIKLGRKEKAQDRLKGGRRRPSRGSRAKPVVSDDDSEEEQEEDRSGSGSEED
Compound,IC50 (BRG-1) [µM],IC50 (BRM) [µM]
CC1(C)CN(c2cccc(-c3csc(NC(=O)CNC(=O)c4ccn(S(C)(=O)=O)c4)n3)c2)CCC1O (stereo not shown) [Compound 194],> 0.01,< 0.01
CS(=O)(=O)n1ccc(C(=O)NCC(=O)Nc2nc(-c3cccc(N4CC[C@@H](O)[C@H](F)C4)c3)cs2)c1 [Compound 195],< 0.01,< 0.01
CS(=O)(=O)n1ccc(C(=O)NCC(=O)Nc2nc(-c3cccc(N4CC[C@@H](O)[C@@H](F)C4)c3)cs2)c1 [Compound 196],< 0.01,< 0.01
CS(=O)(=O)n1ccc(C(=O)NCC(=O)Nc2nc(-c3cccc(N4CCC[C@H](C#N)C4)c3)cs2)c1 [Compound 197],> 0.01,< 0.01
CO[C@H]1CN(c2cccc(-c3csc(NC(=O)CNC(=O)c4ccn(S(C)(=O)=O)c4)n3)c2)C[C@H]1OC [Compound 199],> 0.01,> 0.01
COC[C@H]1CCN(c2cccc(-c3csc(NC(=O)CNC(=O)c4ccn(S(C)(=O)=O)c4)n3)c2)C1 [Compound 200],> 0.01,> 0.01
COC[C@@H]1CCN(c2cccc(-c3csc(NC(=O)CNC(=O)c4ccn(S(C)(=O)=O)c4)n3)c2)C1 [Compound 201],> 0.01,< 0.01
CS(=O)(=O)n1ccc(C(=O)NCC(=O)Nc2nc(-c3cccc(N4CCC5(CC4)COC5)c3)cs2)c1 [Compound 202],> 0.01,> 0.01
CC1(C)CN(c2cccc(-c3csc(NC(=O)CNC(=O)c4ccn(S(C)(=O)=O)c4)n3)c2)CC(C)(C)O1 [Compound 203],> 0.01,> 0.01
CS(=O)(=O)n1ccc(C(=O)NCC(=O)Nc2nc(-c3cccc(N4CCCC5(COC5)C4)c3)cs2)c1 [Compound 204],> 0.01,> 0.01
C[C@]1(O)CCCN(c2cccc(-c3csc(NC(=O)CNC(=O)c4ccn(S(C)(=O)=O)c4)n3)c2)C1 [Compound 205],> 0.01,> 0.01
C[C@@]1(O)CCCN(c2cccc(-c3csc(NC(=O)CNC(=O)c4ccn(S(C)(=O)=O)c4)n3)c2)C1 [Compound 206],> 0.01,< 0.01
CS(=O)(=O)n1ccc(C(=O)NCC(=O)Nc2nc(-c3cccc(N4C[C@H]5C[C@H]5C4)c3)cs2)c1 [Compound 207],> 0.01,> 0.01
CS(=O)(=O)n1ccc(C(=O)NCC(=O)Nc2nc(-c3cccc(N4CCC[C@H](F)C4)c3)cs2)c1 [Compound 208],> 0.01,> 0.01
CCS(=O)(=O)n1ccc(C(=O)NCC(=O)Nc2nc(-c3cccc(N4CCC(O)CC4)c3)cs2)c1 [Compound 209],> 0.01,> 0.01
CS(=O)(=O)n1ccc(C(=O)NCC(=O)Nc2nc(-c3cccc(N4CCCOCC4)c3)cs2)c1 [Compound 210],> 0.01,> 0.01
CS(=O)(=O)n1ccc(C(=O)NCC(=O)Nc2nc(-c3cccc(N4CCC[C@@H](C#N)C4)c3)cs2)c1 [Compound 211],> 0.01,> 0.01
CS(=O)(=O)n1ccc(C(=O)NCC(=O)Nc2nc(-c3cccc(N4CC(O)C4)c3)cs2)c1 [Compound 212],< 0.01,< 0.01
CS(=O)(=O)n1ccc(C(=O)NCC(=O)Nc2nc(-c3cccc(N4CCC[C@@H](F)C4)c3)cs2)c1 [Compound 213],> 0.01,> 0.01

Compound,IC50 (BRG-1) [µM],IC50 (BRM) [µM]
CS(=O)(=O)n1ccc(C(=O)NCC(=O)Nc2nc(-c3cccc(N4CC5CC4CO5)c3)cs2)c1 (stereo not shown) [Compound 214],> 0.1,> 0.1
CS(=O)(=O)n1ccc(C(=O)NCC(=O)Nc2nc(-c3cccc(N4CCC[C@@H](O)C4)c3)cs2)c1 [Compound 215],> 0.01,> 0.01
CS(=O)(=O)n1ccc(C(=O)NCC(=O)Nc2nc(-c3cccc(N4CCC(C#N)CC4)c3)cs2)c1 [Compound 216],> 0.01,> 0.01
"CC(C)(C(=O)O)n1ccc(-c2cccc(-c3csc(NC(=O)CNC(=O)c4ccn(S(C)(=O)=O)c4)n3)c2)n1 [Compound 217, 2-methyl-2-[3-[3-[2-[[2-[(1-methylsulfonylpyrrole-3-carbonyl)amino]acetyl]amino]thiazol-4-yl]phenyl]pyrazol-1-yl]propanoic acid]",> 0.01,> 0.01
CS(=O)(=O)n1ccc(C(=O)NCC(=O)Nc2nc(-c3cccc(-c4ccn(CC(=O)O)n4)c3)cs2)c1 [Compound 218],> 0.01,> 0.01
C[C@H]1CN(c2cccc(-c3csc(NC(=O)CNC(=O)c4ccn(S(C)(=O)=O)c4)n3)c2)CC[C@H]1O [Compound 219],> 0.01,> 0.01
CN1CCN(c2cccc(-c3csc(NC(=O)CNC(=O)c4ccn(S(C)(=O)=O)c4)n3)c2)CC1=O [Compound 220],> 0.01,> 0.01
C[C@@H]1CN(c2cccc(-c3csc(NC(=O)CNC(=O)c4ccn(S(=O)(=O)N(C)C)c4)n3)c2)C[C@H](C)O1 [Compound 221],> 0.01,> 0.01
COC1CC2(C1)CN(c1cccc(-c3csc(NC(=O)CNC(=O)c4ccn(S(C)(=O)=O)c4)n3)c1)C2 [Compound 222],> 0.1,> 0.01
CS(=O)(=O)n1ccc(C(=O)NCC(=O)Nc2nc(-c3cccc(N4C[C@H]5COC[C@H]5C4)c3)cs2)c1 [Compound 223],> 0.01,> 0.01
CO[C@H]1CCN(c2cccc(-c3csc(NC(=O)CNC(=O)c4ccn(S(C)(=O)=O)c4)n3)c2)C1 [Compound 224],> 0.01,> 0.01
CS(=O)(=O)n1ccc(C(=O)NCC(=O)Nc2nc(-c3cccc(N4CCC(F)(F)C4)c3)cs2)c1 [Compound 225],> 0.01,> 0.01
CO[C@@H]1CCN(c2cccc(-c3csc(NC(=O)CNC(=O)c4ccn(S(C)(=O)=O)c4)n3)c2)C1 [Compound 226],> 0.01,< 0.01
CS(=O)(=O)n1ccc(C(=O)NCC(=O)Nc2nc(-c3cccc(N4CC(N5CCOCC5)C4)c3)cs2)c1 [Compound 227],> 0.01,> 0.01
CCS(=O)(=O)n1ccc(C(=O)NCC(=O)Nc2nc(-c3cccc(N4C[C@@H](C)O[C@@H](C)C4)c3)cs2)c1 [Compound 228],> 0.01,< 0.01
C[C@@H]1CN(c2cccc(-c3csc(NC(=O)CNC(=O)c4ccn(C5COC5)c4)n3)c2)C[C@H](C)O1 [Compound 229],> 0.1,> 0.1
CS(=O)(=O)n1ccc(C(=O)NCC(=O)Nc2nc(-c3cccc(N4CC5CC(C4)O5)c3)cs2)c1 [Compound 230],> 0.1,> 0.01
CS(=O)(=O)n1ccc(C(=O)NCC(=O)Nc2nc(-c3cccc(N4CCCC4)c3)cs2)c1 [Compound 231],> 0.01,> 0.01
C[C@H]1CCCN(c2cccc(-c3csc(NC(=O)CNC(=O)c4ccn(S(C)(=O)=O)c4)n3)c2)C1 [Compound 232],> 0.01,> 0.01

Compound,IC50 (BRG-1) [µM],IC50 (BRM) [µM]
CS(=O)(=O)n1ccc(C(=O)NCC(=O)Nc2nc(-c3cccc(N4CCC4)c3)cs2)c1 [Compound 233],> 0.01,< 0.01
Cn1ncc2c1CCN(c1cccc(-c3csc(NC(=O)CNC(=O)c4ccn(S(C)(=O)=O)c4)n3)c1)C2 [Compound 234],> 0.01,> 0.01
C[C@@H]1CN(c2cccc(-c3csc(NC(=O)CNC(=O)c4ccn(C5(C)COC5)c4)n3)c2)C[C@H](C)O1 [Compound 235],> 0.01,> 0.01
CC[C@H]1CN(c2cccc(-c3csc(NC(=O)CNC(=O)c4ccn(S(C)(=O)=O)c4)n3)c2)CCO1 [Compound 236],> 0.01,> 0.01
CC[C@@H]1CN(c2cccc(-c3csc(NC(=O)CNC(=O)c4ccn(S(C)(=O)=O)c4)n3)c2)CCO1 [Compound 237],> 0.01,> 0.01
C[C@@H]1CCCN(c2cccc(-c3csc(NC(=O)CNC(=O)c4ccn(S(C)(=O)=O)c4)n3)c2)C1 [Compound 238],> 0.01,> 0.01
C[C@@H]1COCCN1c1cccc(-c2csc(NC(=O)CNC(=O)c3ccn(S(C)(=O)=O)c3)n2)c1 [Compound 239],> 0.01,> 0.01
CS(=O)(=O)n1ccc(C(=O)NCC(=O)Nc2nc(-c3cccc(N4CCC(F)(F)CC4)c3)cs2)c1 [Compound 241],> 0.1,> 0.01
CS(=O)(=O)n1ccc(C(=O)NCC(=O)Nc2nc(-c3cccc(N4CCCCC4)c3)cs2)c1 [Compound 242],> 0.01,> 0.01
CC1(O)CCN(c2cccc(-c3csc(NC(=O)CNC(=O)c4ccn(S(C)(=O)=O)c4)n3)c2)CC1 [Compound 243],> 0.1,> 0.01
COC[C@@H]1CCCN(c2cccc(-c3csc(NC(=O)CNC(=O)c4ccn(S(C)(=O)=O)c4)n3)c2)C1 [Compound 244],> 0.01,> 0.01
CC(C)(C)n1ccc(C(=O)NCC(=O)Nc2nc(-c3cccc(N4CC5(COC5)C4)c3)cs2)c1 [Compound 245],> 0.01,> 0.01
COC1CN(c2cccc(-c3csc(NC(=O)CNC(=O)c4ccn(S(C)(=O)=O)c4)n3)c2)C1 [Compound 246],> 0.01,< 0.01
Cc1cccc(-c2csc(NC(=O)CNC(=O)c3ccn(S(C)(=O)=O)c3)n2)c1 [Compound 247],> 0.01,> 0.01
CS(=O)(=O)n1ccc(C(=O)NCC(=O)Nc2nc(-c3cccc(C(F)F)c3)cs2)c1 [Compound 248],> 0.01,> 0.01
CC1Cc2ccc(-c3csc(NC(=O)CNC(=O)c4ccn(S(C)(=O)=O)c4)n3)cc2O1 (stereo not shown) [Compound 249],> 0.01,> 0.01
COCCN1CCc2ccc(-c3csc(NC(=O)CNC(=O)c4ccn(S(C)(=O)=O)c4)n3)cc21 [Compound 250],> 0.01,> 0.01
CO[C@H]1C[C@H](Oc2cccc(-c3csc(NC(=O)CNC(=O)c4ccn(S(C)(=O)=O)c4)n3)c2)C1 [Compound 252],> 0.01,> 0.01
